Source: patent US12421489B2, “Biological control of plant pathogenic microorganisms” (priority 2016, dated 2025)

Legend:
Format in all cases: in vivo
[1] = test system: Pseudomonas syringae pv. actinidiae (Psa); experiment: Field trials 2015-16: foliar sprays on ‘Hayward’ vines, Blocks B and C, Maketu; details: mean of Blocks B and C
Excerpt: Grower standard treatment: Kocide Opti+1×Kasumin
Two field trial sites were established during spring 2015 with the intention of running across two consecutive seasons. The two ‘Hayward’ blocks (coded Block B and C) were located in separate orchards, near Maketu, Bay of Plenty. Block C was the same orchard as the 2014-15 trial, but a different area in the blocks was used. Vines in all blocks were pergola trained with a single vine per bay. The vines generally looked healthy at the commencement of the trial, but had suffered from significant Psa symptoms 2-3 years previously, according to the grower.
The spray treatments were applied to individual vines (eight replicates per treatment) laid out in a randomised block design. The treatments were: • 1. Nil—no Psa control products applied during the growing season • 2. Grower standard—copper-based foliar spray programme, including up to one antibiotic spray • 3. YBCA5—yeast-based foliar spray programme (2×10^7 CFU/mL)
Spray applications in the Grower standard and YBCA5 treatments were applied according to the schedule in Table 5. Common agricultural adjuvants were added to the Grower standard (0.04% Du-Wett®) and YBCA5 (0.03% Nu-Film-17@) applications.
The YBCA5 yeast was produced by liquid fermentation, sourced from three separate production facilities: PFR (Ruakura), AgResearch (Lincoln) and Callaghan Innovation (Lower Hutt). A concentrated yeast pellet after centrifugation was supplied to the laboratory at Ruakura and this was mixed with an inert carrier and extruded to form granules which were air dried overnight in a laminar flow hood. The number of colony forming units/g was calculated by dissolving 0.2 g samples into 20 mL phosphate buffered saline amended with 0.05% Tween 80 (PBSTw). This was serially diluted and 10-μL droplets of each dilution were transferred to Petri dishes with malt yeast extract agar amended with chloramphenicol. Petri dishes were incubated for 24 h at 25° C. and then 4-6° C. for a further 24 h, prior to counting the number of colonies. […]
Psa disease assessments were carried out in the ‘Hayward’ blocks just prior to flowering on 11 Nov. […] Assessments were commenced after taking one step (i.e. 1 m) from the edge of the plot and a set of 25 leaves were scored. […] This was then repeated down the other side of the vine so that four sets of 25 leaves (total=100) were scored within each plot. Similarly, 100 buds/plot were scored for the severity of bud-browning, as described above.
Data were expressed as Psa incidence (based on the proportion of leaves with Psa spotting/proportion of buds with brown sepals) and average Psa severity (mean % leaf area necrotic/mean number of brown sepals on buds). Data were log-transformed and analysed by ANOVA using Genstat (ver. 16) to determine treatment differences. […]

[2] = test system: Botrytis spp.; experiment: Cherry inoculation assays 2 and 4: Botrytis spp. fruit rot of ‘Sweet Valentine’ cherries, dip treatment; details: Assay 4, cherries, cumulative after 16 days; nil 67%; not significantly reduced (P>0.05)
Method: (§1) Fruit-based screening assays were conducted in laboratories at the Plant and Food Research Ruakura Research Centre, Hamilton, New Zealand (PFR). PFR assays focused on dip treatment application of YBCA5 and fungicide controls.
(§2) Fruit for Monilinia fructicola and Botrytis spp. inoculation assays were carried out on sweet cherries (Prunus avium ‘Sweet Valentine’) that were picked at the harvest mature stage and sourced from the PFR Clyde Research Orchard in Central Otago on 8 Jan. 2016 for fruit based assays 1 and 2. A second harvest was carried out on 13 Jan. 2016 for fruit based assays 3 and 4.
(§3) Each cherry was then subjected to a double wash process. Wash one consisted of 10 minutes in tap water on a rotary shaker (110 rpm) followed by a five minute wash in SDW (Wash 2). […]
A Botrytis spp. culture (isolate code 09-2), which had been originally isolated from an infected kiwifruit located in the Bay of Plenty region during the 2000s, was used for the spray inoculation assays included in this section carried out on cherries. […] This stock suspension was then filtered using a 70 μm cell strainer (70 μm mesh) to remove mycelial fragments, the concentration determined using a haemocytometer and then adjusted, by dilution with SDW+Tw 80 (0.01% v/v) to a final concentration of 1×10^5 conidia/mL. […]

[3] = test system: Monilinia fructicola; experiment: Cherry inoculation assays 1 and 3: Monilinia fruit rot of ‘Sweet Valentine’ cherries, dip treatment; details: Assay 3, cherries, cumulative after 16 days; Nil 88%; YBCA5 not significant (P>0.05), captan P<0.001
Method: as §1, §2, §3
A Monilinia fructicola culture (isolate code MFGQ3), which had been originally isolated from an infected peach tree located in the Hamilton region during 1998, was used for the spray inoculation assays included in this section (Ruakura based assay). […] This stock suspension was then filtered using a 70 μm cell strainer (to remove mycelial fragments), the concentration determined using a haemocytometer and then adjusted, by dilution with SDW+Tw 80 (0.05%) to a final concentration of 1×10^4 conidia/mL. […]

[4] = test system: Botrytis spp.; experiment: Grape inoculation assay 5: Botrytis spp. rot of wounded table grape berries; details: Assay 5, wounded table grapes, 9 days, mean of two Botrytis spp. isolates; nil 30%; significantly reduced (P<0.001)
Method: Fruit assays were carried out on detached white table grape berries (‘Thompson seedless’—Assay 5), imported from California that were sourced from a local supermarket in Hamilton. Each berry was detached from the bunch with 3-4 mm of pedicel remaining and then subjected to a double wash process. Wash one consisted of 10 minutes in tap water on a rotary shaker (110 rpm) followed by a five minute wash in SDW (Wash 2). All berries were placed onto sterile black plastic grids in a sterile plastic meat tray with two sterile paper towels and were allowed to dry in a laminar flow hood. Each berry was lightly wounded with the aid of fine sandpaper, Grade P220, then dipped in the treatments for 60 seconds and again allowed to dry.
YBCA5 granules were prepared by fermenting the yeast for 3 days in a 10 L bioreactor (Labfors) using sterile liquid media (4% molasses and 1.2 g/L urea). […]
Botrytis spp. inoculum was prepared by growing each isolate of Botrytis spp. for 5-7 days on PDA (DIFCO, Fort Richard) medium and harvesting the conidia by washing the plate with SDW plus Tween 80 (0.01%) to make a stock suspension of inoculum. This stock suspension was then filtered using a cell strainer (70 μm mesh, Falcon) to remove mycelial fragments, the concentration determined using a haemocytometer and adjusted to the required concentration (2×10^4 conidia/mL) equivalent to 200 conidia in each 10 μL droplet. […]

| SMILES | Severity of spotting (% leaf area) ([1]; assessed Nov. 11, 2015, Nil control 0.24, LSD 0.099) [b % leaf area] | Severity of bud browning (No. sepals) ([1]; assessed Nov. 11, 2015, Nil control 1.29, LSD 0.226) [b No. sepals] | % leaves with spotting (incidence) ([1]; assessed Nov. 11, 2015, Nil control 50, LSD 8.0) [b %] | % buds with necrosis (incidence) ([1]; assessed Nov. 11, 2015, Nil control 61, LSD 9.9) [b %] | incidence of Botrytis spp. fruit rot [2] [%] | incidence of Monilinia fruit rot [3] [%] | incidence of Botrytis spp. fruit rot [4] [%] |
| --- | --- | --- | --- | --- | --- | --- | --- |
| [Cu+2].[OH-].[OH-] [Kocide Opti, Copper Hydroxide] | 0.07 | 0.80 | 27 | 45 |  |  |  |
| O=C1C2CC=CCC2C(=O)N1SC(Cl)(Cl)Cl (stereo not shown) [captan] |  |  |  |  | 43 | 12 | 10 |
